# Tests used:
# KM12 [1] = experiment: Cytotoxicity against human KM12 cells assessed as reduction in cell viability incubated for 72 hrs by resazurin based assay; format: functional; conditions: KM12, 72 h
# [2] = molecular target: High affinity nerve growth factor receptor (Homo sapiens, UniProt P04629); experiment: Inhibition of recombinant His-tagged human TRKA (441 to 796 residues) expressed in baculovirus expression system at 20 uM using 5-FAM-EEPLYWSFPAKKK-CONH2 as substrate preincubated for 1 hr followed by substrate addition in presence of ATP by mobility shift assay relative to control
# [3] = Permeability of compound in human brain like endothelial cells BBB model at 10 uM after 120 mins by LC-MS analysis; format: ADME, cell-based; conditions: read-out: permeability (converted)
# KM12 [4] = experiment: Antiproliferative activity against human KM12 cells assessed as cell growth at 10 uM relative to control; format: functional; conditions: read-out: Activity
# HOP-92 = experiment: Antiproliferative activity against human HOP-92 cells assessed as cell growth at 10 uM relative to control; format: functional; conditions: read-out: Activity
# NCI-H522 = experiment: Antiproliferative activity against human NCI-H522 cells assessed as cell growth at 10 uM relative to control; format: functional; conditions: read-out: Activity
# CCRF-CEM = experiment: Antiproliferative activity against human CCRF-CEM cells assessed as cell growth at 10 uM relative to control; format: functional; conditions: read-out: Activity
# MDA-MB-468 = experiment: Antiproliferative activity against human MDA-MB-468 cells assessed as cell growth at 10 uM relative to control; format: functional; conditions: read-out: Activity
# A549 = experiment: Antiproliferative activity against human A549 cells assessed as cell growth at 10 uM relative to control; format: functional; conditions: read-out: Activity
# HCC 2998 = experiment: Antiproliferative activity against human HCC 2998 cells assessed as cell growth at 10 uM relative to control; format: functional; conditions: read-out: Activity
# Hs-578T = experiment: Antiproliferative activity against human Hs-578T cells assessed as cell growth at 10 uM relative to control; format: functional; conditions: read-out: Activity
# HCT-15 = experiment: Antiproliferative activity against human HCT-15 cells assessed as cell growth at 10 uM relative to control; format: functional; conditions: read-out: Activity
# SF-295 = experiment: Antiproliferative activity against human SF-295 cells assessed as cell growth at 10 uM relative to control; format: functional; conditions: read-out: Activity
# LOX IMVI = experiment: Antiproliferative activity against human LOX IMVI cells assessed as cell growth at 10 uM relative to control; format: functional; conditions: read-out: Activity
# SK-MEL-5 = experiment: Antiproliferative activity against human SK-MEL-5 cells assessed as cell growth at 10 uM relative to control; format: functional; conditions: read-out: Activity
# NCI/ADR-RES = experiment: Antiproliferative activity against human NCI/ADR-RES cells assessed as cell growth at 10 uM relative to control; format: functional; conditions: read-out: Activity
# CAKI-1 = experiment: Antiproliferative activity against human CAKI-1 cells assessed as cell growth at 10 uM relative to control; format: functional; conditions: read-out: Activity
# NCI-H460 = experiment: Antiproliferative activity against human NCI-H460 cells assessed as cell growth at 10 uM relative to control; format: functional; conditions: read-out: Activity
# UACC-257 = experiment: Antiproliferative activity against human UACC-257 cells assessed as cell growth at 10 uM relative to control; format: functional; conditions: read-out: Activity
# SR = experiment: Antiproliferative activity against human SR cells assessed as cell growth at 10 uM relative to control; format: functional; conditions: read-out: Activity
# SN12C = experiment: Antiproliferative activity against human SN12C cells assessed as cell growth at 10 uM relative to control; format: functional; conditions: read-out: Activity
# MOLT-4 = experiment: Antiproliferative activity against human MOLT-4 cells assessed as cell growth at 10 uM relative to control; format: functional; conditions: read-out: Activity
# HL-60(TB) = experiment: Antiproliferative activity against human HL-60(TB) cells assessed as cell growth at 10 uM relative to control; format: functional; conditions: read-out: Activity
# HT-29 = experiment: Antiproliferative activity against human HT-29 cells assessed as cell growth at 10 uM relative to control; format: functional; conditions: read-out: Activity
# MDA-MB-435 = experiment: Antiproliferative activity against human MDA-MB-435 cells assessed as cell growth at 10 uM relative to control; format: functional; conditions: read-out: Activity
# PC-3 = experiment: Antiproliferative activity against human PC-3 cells assessed as cell growth at 10 uM relative to control; format: functional; conditions: read-out: Activity
# SK-MEL-2 = experiment: Antiproliferative activity against human SK-MEL-2 cells assessed as cell growth at 10 uM relative to control; format: functional; conditions: read-out: Activity
# SNB-75 = experiment: Antiproliferative activity against human SNB-75 cells assessed as cell growth at 10 uM relative to control; format: functional; conditions: read-out: Activity
# RPMI-8226 = experiment: Antiproliferative activity against human RPMI-8226 cells assessed as cell growth at 10 uM relative to control; format: functional; conditions: read-out: Activity
# BT-549 = experiment: Antiproliferative activity against human BT-549 cells assessed as cell growth at 10 uM relative to control; format: functional; conditions: read-out: Activity
# EKVX = experiment: Antiproliferative activity against human EKVX cells assessed as cell growth at 10 uM relative to control; format: functional; conditions: read-out: Activity
# UO-31 = experiment: Antiproliferative activity against human UO-31 cells assessed as cell growth at 10 uM relative to control; format: functional; conditions: read-out: Activity
# HOP-62 = experiment: Antiproliferative activity against human HOP-62 cells assessed as cell growth at 10 uM relative to control; format: functional; conditions: read-out: Activity
# DU-145 = experiment: Antiproliferative activity against human DU-145 cells assessed as cell growth at 10 uM relative to control; format: functional; conditions: read-out: Activity
# TK-10 = experiment: Antiproliferative activity against human TK-10 cells assessed as cell growth at 10 uM relative to control; format: functional; conditions: read-out: Activity
# COLO 205 = experiment: Antiproliferative activity against human COLO 205 cells assessed as cell growth at 10 uM relative to control; format: functional; conditions: read-out: Activity
# OVCAR-4 = experiment: Antiproliferative activity against human OVCAR-4 cells assessed as cell growth at 10 uM relative to control; format: functional; conditions: read-out: Activity
# NCI-H322M = experiment: Antiproliferative activity against human NCI-H322M cells assessed as cell growth at 10 uM relative to control; format: functional; conditions: read-out: Activity
# M14 = experiment: Antiproliferative activity against human M14 cells assessed as cell growth at 10 uM relative to control; format: functional; conditions: read-out: Activity
# OVCAR-3 = experiment: Antiproliferative activity against human OVCAR-3 cells assessed as cell growth at 10 uM relative to control; format: functional; conditions: read-out: Activity
# T47D = experiment: Antiproliferative activity against human T47D cells assessed as cell growth at 10 uM relative to control; format: functional; conditions: read-out: Activity
# OVCAR-8 = experiment: Antiproliferative activity against human OVCAR-8 cells assessed as cell growth at 10 uM relative to control; format: functional; conditions: read-out: Activity
# SNB-19 = experiment: Antiproliferative activity against human SNB-19 cells assessed as cell growth at 10 uM relative to control; format: functional; conditions: read-out: Activity
# SK-MEL-28 = experiment: Antiproliferative activity against human SK-MEL-28 cells assessed as cell growth at 10 uM relative to control; format: functional; conditions: read-out: Activity
# K562 = experiment: Antiproliferative activity against human K562 cells assessed as cell growth at 10 uM relative to control; format: functional; conditions: read-out: Activity
# NCI-H23 = experiment: Antiproliferative activity against human NCI-H23 cells assessed as cell growth at 10 uM relative to control; format: functional; conditions: read-out: Activity
# NCI-H226 = experiment: Antiproliferative activity against human NCI-H226 cells assessed as cell growth at 10 uM relative to control; format: functional; conditions: read-out: Activity
# OVCAR-5 = experiment: Antiproliferative activity against human OVCAR-5 cells assessed as cell growth at 10 uM relative to control; format: functional; conditions: read-out: Activity
# RXF 393 = experiment: Antiproliferative activity against human RXF 393 cells assessed as cell growth at 10 uM relative to control; format: functional; conditions: read-out: Activity
# SW-620 = experiment: Antiproliferative activity against human SW-620 cells assessed as cell growth at 10 uM relative to control; format: functional; conditions: read-out: Activity
# MDA-MB-231 = experiment: Antiproliferative activity against human MDA-MB-231 cells assessed as cell growth at 10 uM relative to control; format: functional; conditions: read-out: Activity
# U-251 = experiment: Antiproliferative activity against human U-251 cells assessed as cell growth at 10 uM relative to control; format: functional; conditions: read-out: Activity
# SK-OV-3 = experiment: Antiproliferative activity against human SK-OV-3 cells assessed as cell growth at 10 uM relative to control; format: functional; conditions: read-out: Activity
# UACC-62 = experiment: Antiproliferative activity against human UACC-62 cells assessed as cell growth at 10 uM relative to control; format: functional; conditions: read-out: Activity
# HCT-116 = experiment: Antiproliferative activity against human HCT-116 cells assessed as cell growth at 10 uM relative to control; format: functional; conditions: read-out: Activity
# 786-0 = experiment: Antiproliferative activity against human 786-0 cells assessed as cell growth at 10 uM relative to control; format: functional; conditions: read-out: Activity
# IGROV-1 = experiment: Antiproliferative activity against human IGROV-1 cells assessed as cell growth at 10 uM relative to control; format: functional; conditions: read-out: Activity
# Malme-3M = experiment: Antiproliferative activity against human MALME-3M cells assessed as cell growth at 10 uM relative to control; format: functional; conditions: read-out: Activity
# SF-539 = experiment: Antiproliferative activity against human SF-539 cells assessed as cell growth at 10 uM relative to control; format: functional; conditions: read-out: Activity
# MCF7 = experiment: Antiproliferative activity against human MCF7 cells assessed as cell growth at 10 uM relative to control; format: functional; conditions: read-out: Activity
# A498 = experiment: Antiproliferative activity against human A498 cells assessed as cell growth at 10 uM relative to control; format: functional; conditions: read-out: Activity
# SF-268 = experiment: Antiproliferative activity against human SF-268 cells assessed as cell growth at 10 uM relative to control; format: functional; conditions: read-out: Activity
# ACHN = experiment: Antiproliferative activity against human ACHN cells assessed as cell growth at 10 uM relative to control; format: functional; conditions: read-out: Activity
# Sequence of High affinity nerve growth factor receptor (P04629 33-796 limits assumed): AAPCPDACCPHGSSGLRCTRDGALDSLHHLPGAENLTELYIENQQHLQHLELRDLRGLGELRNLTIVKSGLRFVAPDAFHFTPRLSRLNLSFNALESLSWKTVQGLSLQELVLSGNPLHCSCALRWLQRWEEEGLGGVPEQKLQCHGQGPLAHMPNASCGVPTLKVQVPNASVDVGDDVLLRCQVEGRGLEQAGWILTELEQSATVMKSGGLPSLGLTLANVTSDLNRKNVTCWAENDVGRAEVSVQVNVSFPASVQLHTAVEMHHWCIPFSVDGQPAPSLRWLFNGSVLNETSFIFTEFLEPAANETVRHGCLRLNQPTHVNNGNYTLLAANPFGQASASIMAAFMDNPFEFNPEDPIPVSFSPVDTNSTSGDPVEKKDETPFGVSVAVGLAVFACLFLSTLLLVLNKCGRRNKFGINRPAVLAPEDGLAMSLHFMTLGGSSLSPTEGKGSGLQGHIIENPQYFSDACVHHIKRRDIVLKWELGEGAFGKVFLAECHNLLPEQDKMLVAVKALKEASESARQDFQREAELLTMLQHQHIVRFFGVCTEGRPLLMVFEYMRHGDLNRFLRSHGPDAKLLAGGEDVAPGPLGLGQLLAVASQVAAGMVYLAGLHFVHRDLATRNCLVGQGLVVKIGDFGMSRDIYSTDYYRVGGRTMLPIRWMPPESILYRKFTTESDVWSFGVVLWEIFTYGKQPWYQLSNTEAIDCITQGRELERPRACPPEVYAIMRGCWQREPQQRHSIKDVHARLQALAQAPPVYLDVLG
smiles,measurement,setting,value
COc1ccc(Nc2ncnc3ccsc23)cc1,IC50,KM12 [1],103 µM
same,inhibition,[2],18%
CN1CCN(c2ccc(C(=O)Nc3n[nH]c4ccc(Cc5cc(F)cc(F)c5)cc34)c(NC3CCOCC3)c2)CC1 [ENTRECTINIB],"Papp at 2 h, 10 µM",[3],17 ×10⁻⁶ cm/s
same,IC50,KM12 [1],0.012 µM
Cn1cc(-c2cc3ncnc(Nc4ccc(CC(=O)Nc5ccc(C(C)(C)C)cc5)cc4)c3s2)cn1,growth at 10 µM,KM12 [4],22.4%
same,growth at 10 µM,HOP-92,132%
same,growth at 10 µM,NCI-H522,93%
same,growth at 10 µM,CCRF-CEM,100%
same,growth at 10 µM,MDA-MB-468,90.9%
same,growth at 10 µM,A549,98.3%
same,growth at 10 µM,HCC 2998,136%
same,growth at 10 µM,Hs-578T,88.8%
same,growth at 10 µM,HCT-15,102%
same,growth at 10 µM,SF-295,117%
same,growth at 10 µM,LOX IMVI,106%
same,growth at 10 µM,SK-MEL-5,98.3%
same,growth at 10 µM,NCI/ADR-RES,108%
same,growth at 10 µM,CAKI-1,86%
same,growth at 10 µM,NCI-H460,99%
same,growth at 10 µM,UACC-257,110%
same,growth at 10 µM,SR,102%
same,growth at 10 µM,SN12C,98.5%
same,growth at 10 µM,MOLT-4,97.5%
same,growth at 10 µM,HL-60(TB),97.8%
same,growth at 10 µM,HT-29,102%
same,growth at 10 µM,MDA-MB-435,104%
same,growth at 10 µM,PC-3,99.1%
same,growth at 10 µM,SK-MEL-2,105%
same,growth at 10 µM,SNB-75,75%
same,growth at 10 µM,RPMI-8226,103%
same,growth at 10 µM,BT-549,107%
same,growth at 10 µM,EKVX,93.2%
same,growth at 10 µM,UO-31,102%
same,growth at 10 µM,HOP-62,125%
same,growth at 10 µM,DU-145,98.2%
same,growth at 10 µM,TK-10,98.6%
same,growth at 10 µM,COLO 205,120%
same,growth at 10 µM,OVCAR-4,98.6%
same,growth at 10 µM,NCI-H322M,99.7%
same,growth at 10 µM,M14,102%
same,growth at 10 µM,OVCAR-3,110%
same,growth at 10 µM,T47D,93.7%
same,growth at 10 µM,OVCAR-8,103%
same,growth at 10 µM,SNB-19,101%
same,growth at 10 µM,SK-MEL-28,107%
same,growth at 10 µM,K562,91.5%
same,growth at 10 µM,NCI-H23,106%
same,growth at 10 µM,NCI-H226,95.5%
same,growth at 10 µM,OVCAR-5,118%
same,growth at 10 µM,RXF 393,93.2%
same,growth at 10 µM,SW-620,119%
same,growth at 10 µM,MDA-MB-231,105%
same,growth at 10 µM,U-251,88.3%
same,growth at 10 µM,SK-OV-3,120%
same,growth at 10 µM,UACC-62,101%
same,growth at 10 µM,HCT-116,104%
same,growth at 10 µM,786-0,101%
same,growth at 10 µM,IGROV-1,98.2%
same,growth at 10 µM,Malme-3M,102%
same,growth at 10 µM,SF-539,66.9%
same,growth at 10 µM,MCF7,96.2%
same,growth at 10 µM,A498,88.1%
same,growth at 10 µM,SF-268,101%
same,growth at 10 µM,ACHN,84.3%
O=C(c1ccc(Nc2ncnc3ccsc23)cc1)N1CCCCC1,IC50,KM12 [1],150 µM
same,inhibition,[2],16.5%
